Our source for the IC50 values is ChEMBL document CHEMBL5725825, “Inhibitors of IRAK4 activity” (2017).

The assay concerns the target T1, Interleukin-1 receptor-associated kinase 4 (Homo sapiens, UniProt Q9NWZ3).
T1 sequence (Q9NWZ3 whole entry): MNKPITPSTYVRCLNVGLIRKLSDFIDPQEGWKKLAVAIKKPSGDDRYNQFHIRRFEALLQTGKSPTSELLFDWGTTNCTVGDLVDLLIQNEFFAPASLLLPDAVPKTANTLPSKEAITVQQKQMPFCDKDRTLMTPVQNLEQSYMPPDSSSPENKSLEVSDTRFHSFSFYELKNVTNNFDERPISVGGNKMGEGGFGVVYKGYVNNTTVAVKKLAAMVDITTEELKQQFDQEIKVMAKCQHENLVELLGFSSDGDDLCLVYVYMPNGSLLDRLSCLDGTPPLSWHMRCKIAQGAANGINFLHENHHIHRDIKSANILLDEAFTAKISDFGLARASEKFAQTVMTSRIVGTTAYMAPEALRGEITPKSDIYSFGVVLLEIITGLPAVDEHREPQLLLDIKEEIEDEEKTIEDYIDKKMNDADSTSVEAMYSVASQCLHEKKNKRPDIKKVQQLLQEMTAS
As to the kind of experiment: IMAP Technology: The kinase activity of IRAK4 is determined by its ability to catalyze the phosphorylation of a fluorescent polypeptide substrate. […] The reaction is initiated by the addition of ATP. After incubation for 30 minutes at 25° C., 60 μl of Progressive IMAP Reagent (Molecular Devices) is added to stop the reaction. Change in RP7030's FP is determined by a FP reader (Analyst HT, LJL BioSystems).

In the case of `Cn1cc(NC(=O)c2cccc(-c3ccnc(NCC4CC4)c3)c2)c(C(N)=O)n1`, the IC50 (in general, the concentration that inhibits the measured activity by half) worked out at 184 nM. Consider `Cn1cc(NC(=O)c2cccc(-c3ccnc(NCC4CC4)c3)n2)c(C(=O)N2CCOCC2)n1`, for which it took 1830 nM to reach half-maximal inhibition (IC50).
